From patent US10238113B2, “Method for protecting plants from stress and senescence” (BEN-GURION UNIVERSITY OF THE NEGEV RESEARCH AND DEVELOPMENT …, priority 2008, dated 2019)

Columns and labels:
[1] = system: leaf discs cut from Col and Atxdh mutants rosette leaves; test: Leaf discs treated with purine catabolites under dark-induced stress, remaining chlorophyll; type: in vivo, Arabidopsis thaliana; conditions: for protection from chlorophyll degradation: 0.1 mM, applied 2 h after 48 h dark treatment, +/- allopurinol, Col and Atxdh mutants
Procedure: (§1) FIG. 8a: xanthine (1 mM) in the presence or absence of allopurinol (1 mM, +/−Allo), was applied for 48 h to leaf discs placed in the dark and photographed 24 h after being transferred to 16 h light/8 h dark regime (left upper panel). Remaining chlorophyll, xanthine, allantoin and allantoate were determined in leaf discs sampled at the beginning of the experiment (light) or after 72 h (as described above) without xanthine (dark). FIG. 8b: allantoin or allantoate (0.1 mM) in the presence or absence of allopurinol (1 mm, +/−Allo) was applied to leaf discs for 2 h in the dark after keeping the discs in the dark for 48 h. Discs were photographed 24 h after being transferred to 16 h light/8 h dark regime (left upper panel). Leaf discs were washed twice before sampling for xanthine, allantoin and allantoate determination (right and bottom panels). Bars show mean±SEM (n=16).
Cell death was visualized in leaves sampled from dark stressed and control unstressed plants, by lactophenol-trypan blue staining followed by destaining in saturated chloral hydrate (Koch E. and Slusarenko A. 1990 Plant Cell 2, 437-445). Total chlorophyll content was measured in extracts of the fully expanded leaves as described before (Brychkova et al., 2007, ibid). The values for remaining chlorophyll content in leaf discs were determined as the amount of chlorophyll per disc divided by the amount of chlorophyll per untreated control and expressed as a percentage. The severity of leaf damage after dark stress was as follows: 1, no damage; 2, <30%; 3, 30-50%; 4, >50% of the leaf area damaged. The average leaf damage was then multiplied by the total number of damaged leaves to determine the damage level. Means±SEM for each treatment are presented.
The dark-induced loss of chlorophyll and the accelerated cell death during recovery may be due to the accumulation of excess oxypurines (FIG. 5a) or to the lack of a protective environment provided by ureides (FIGS. 5b and 5c) or both. To examine this directly, leaf discs cut from Col and Atxdh mutants rosette leaves were treated with xanthine for 48 h in the dark and were sampled after 24 h in the light. […] The observations indicate that ureides may protect chlorophyll from degradation during dark treatment and the recovery period. To elucidate the role of allantoin and allantoate directly, leaf discs were treated with 0.1 mM allantoin or allantoate. […] Importantly, the protection by the ureides was afforded in spite of the significant accumulation of xanthine in allopurinol-treated Col plants and Atxdh mutants (FIG. 8b).

[2] = system: Col wild type plants; test: Xanthine determination in allopurinol-treated leaves/leaf discs during dark stress; type: in vivo, Arabidopsis thaliana; conditions: allopurinol applied to wild type plants
Procedure: as §1
Ureides were extracted from leaves with 80% ethanol and determined according to Vogels G. D. and Van Der Drift C. (1970 Anal Biochem 33, 143-157) using allantoic acid and allantoin as references. Six samples were analyzed and averaged for each data points. […] Hypoxanthine/xanthine were determined by high performance liquid chromatography (HPLC) using a 100×2.1 mm ID, ODS-Hypersil (5 μm) column. […] The hypoxanthine and xanthine were detected using standards retention time and UV absorption spectra ratio at 249 nm and 267 nm. […]

[3] = system: leaf discs of Col and Ri plants; test: DAB-H2O2 staining of leaf discs treated with allantoin or allantoate; type: in vivo, Arabidopsis thaliana; conditions: 0.1 mM for 2 h after 24 h dark
Procedure: (§2) FIGS. 9a-9c show reactive oxygen species (ROS) accumulation in the presence of allantoin and allantoate in Arabidopsis wild-type (Col) and xdh1 RNA interference (Ri) lines. FIG. 9a left panel: leaf discs removed from Col plants placed for 24 h in the dark in the presence or absence of allantoin or allantoate (0.1 mM) and then washed and treated with H2O2 (0, 20, 50 mM) for an additional 6 h in the dark. Right panel: remaining chlorophyll determined 24 h after the disc were transferred to a 16 h light/8 h dark regime. Bars show mean±SEM (n=16). […] Total H2O2 relative production (right insert) was quantified in leave discs kept in the dark for 24 h and then treated with allantoin or allantoate for additional 2 h in the dark, using DAB staining Results are from two independent experiments. Error bars indicate SE (n=16). The lower case letters (a, b) indicate P<0.001 for the differences within treatment between ecotypes. […] Leaf discs were treated and analyzed as in FIG. 9b above. Total relative superoxide production was quantified in leaf discs from 2 independent experiments. […]
(§3) Nitroblue tetrazolium (NBT) O2^− staining of leaves was performed essentially according to Jabs T. et al. (1996 Science 273, 1853-1856) and Fryer M. J. et al. (2002 J Exp Bot 53, 1249-1254). […] NBT and DAB stained leaves and leaf discs were quantified using NIH Image Software (Version 1.6). […]

[4] = system: leaf discs of Col and Ri plants; test: NBT-O2- staining of leaf discs treated with allantoin or allantoate; type: in vivo, Arabidopsis thaliana; conditions: 0.1 mM for 2 h after 24 h dark; Col lines
Procedure: as §2, §3

[5] = system: Parsley leaf discs; test: Allantoin application on senescence in parsley leaf discs exposed to dark stress, chlorophyll content; type: in vivo
Procedure: FIG. 14 relates to the influence of allantoin application on senescence in parsley leaf discs exposed to dark stress. Parsley leaf discs were kept for 2 days in the light and then transferred to the dark for additional 2 days with or without the addition of 0 to 10 mM allantoin. CL—control undetached leaves in the light.
Reference is also made to FIG. 14 showing that allantoin application prevents leaf spoilage in Parsley. Parsley leaf discs were kept for 2 days in the light and then for 2 days in the dark with or without the addition of 0 to 10 mM allantoin. Undetached leaves kept in the light served as control (CL). The influence of allantoin application on senescence in parsley was examined by measuring the chlorophyll content relative to the content in the control undeteched leaves.

[6] = system: tomato leaf discs; test: Allantoin application to tomato leaf discs, chlorophyll degradation; type: in vivo; conditions: 0.1 mM and 0.5 mM allantoin; discs 2 days dark then 2 days light

Compound | protection from chlorophyll degradation [1] | reduction in DAB staining intensity (H2O2) [3] [fold] | NBT staining (superoxide) [4] | further results
O=c1[nH]c(=O)c2[nH]cnc2[nH]1 [xanthine] |  |  |  | effect on chlorophyll ([1]; 1 mM xanthine, 48 h in the dark, sampled after 24 h in the light, Col and Ri leaf discs): caused a reduction in chlorophyll
Oc1ncnc2[nH]ncc12 [allopurinol, reference compound] |  |  |  | effect on xanthine-caused reduction in chlorophyll ([1]; allopurinol 1 mM in the presence of 1 mM xanthine, wild type and mutant Ri lines): exacerbated; xanthine accumulation [2]: led to xanthine accumulation
NC(=O)NC(NC(N)=O)C(=O)O [allantoate] | protected the treated leaf discs from chlorophyll degradation | 2 | significantly reduced staining | 
NC(=O)NC1NC(=O)NC1=O (stereo not drawn) [allantoin] | protected the treated leaf discs from chlorophyll degradation | 2 | significantly reduced staining | prevention of chlorophyll loss (chlorophyll content relative to control undetached leaves) ([5]; 0.1-0.5 mM allantoin, 2 days light then 2 days dark): particularly effective in preventing the chlorophyll loss; protection of leaves from chlorophyll degradation and yellowing ([5]; 0.1-10 mM allantoin, summary of parsley and tomato leaf disc results): protects leaves from chlorophyll degradation and yellowing; chlorophyll degradation [6]: delayed the chlorophyll degradation
